Assay results: PMC3694426 (Clinical cancer research : an official journal of the …, 2013)
Marks after values point to notes of the source that are not given here.

Columns and labels:
[1] = plasma pharmacokinetics in patients; assay type: in vivo, human; conditions: for CL/F: day 22 of cycle 1, plasma, arithmetic mean (CV%); for half-life: in vivo
[2] = tested on: pancreatic tumor model with elevated Shh (sonic hedgehog) expression; conditions: stated in introduction; cited from earlier work

With `CC1=C2C[C@H]3[C@@H](CC[C@@H]4C[C@H](NS(C)(=O)=O)CC[C@@]43C)[C@@H]2CC[C@@]2(C1)O[C@@H]1C[C@H](C)CN[C@H]1[C@H]2C` [IPI-926] the CL/F ([1]; 20 mg QD oral (n = 1)) was 111 (NC) L/h, the CL/F ([1]; 30 mg QD oral (n = 1)) was 59.0 (NC) L/h and the CL/F ([1]; 40 mg QD oral (n = 1)) was 50.0 (NC) L/h. The CL/F ([1]; 60 mg QD oral (n = 1)) was 28.6 (NC) L/h, the CL/F ([1]; 130 mg QD oral, n = 4) was 23.0 (36.0) ^b L/h and the CL/F ([1]; 160 mg QD oral (n = 4)) was 21.2 (38.5) L/h. The CL/F ([1]; 180 mg QD oral (n = 1)) was 14.0 (NC) L/h, the CL/F ([1]; 200 mg QD oral (n = 1)) was 13.3 (NC) L/h and the CL/F ([1]; 210 mg QD oral (n = 5)) was 20.6 (35.5) L/h. For the same compound, the “mean oral clearance (CL/F)” value ([1]; 130-mg dose level, expanded phases) was 27.4 L/h, the “mean oral clearance (CL/F)” value ([1]; 160-mg dose level, expanded phases) was 20.1 L/h and the half-life ([1]; human, po) was 20 to 40 h. For the same compound, the half-life ([1]; human, po, 130 mg) was 19.3 h, the half-life ([1]; human, po, 160 mg) was 17.3 h and the half-life ([1]; human, po, 180 mg) was 16.1 h. For the same compound, the half-life ([1]; human, po, 200 mg) was 12.7 h, the Tmax ([1]; human, plasma, po, Tmax (slow absorption), overall summary, patients) was 2 to 8 h and the “dose dependence of mean AUC0–24 and Cmax” value ([1]; single and multiple doses of 130 to 160 mg, expanded phases) was “dose-proportional manner”. For the same compound, the “Shh signaling in surrounding stromal tissue (Gli1 mRNA)” value [2] was “inhibited Shh signaling” and the tumor growth [2] was “slows tumor growth”.
